Assay results: paper PMC11377560, “Structural insights into the molecular effects of the anthelmintics monepantel and betaine on the Caenorhabditis elegans acetylcholine receptor ACR-23” (The EMBO Journal, 2024)
Blank lines part the entries; values can stand above or below the compound they belong to.

What was measured:
[1] = target: engineered ACR-23 (acetylcholine receptor like-23), M3-M4 loop replaced with bRIL (Caenorhabditis elegans | not stated) (UniProt G5EG88); assay: cryo-EM structure; single particle cryo-EM of purified ACR-23 in DDM/CHS, 20 mM Tris pH 8.0, 150 mM NaCl; apo, with 1.5 mM betaine, or with 1.5 mM betaine and 5 mM monepantel; homo-pentamer in all three states
[2] = target: T1, ACR-23 (acetylcholine receptor like-23) (Caenorhabditis elegans, UniProt G5EG88); assay: cryo-EM structure ([…] Å); EC50 by whole-cell patch clamp in HEK293 cells; type: cell-based
T1 construct: homo-pentamer; M3-M4 loop (residues Lys 386 to Gln 437) replaced with bRIL, C-terminal strep tag (cryo-EM); ACR-23 with C-terminal GFP in HEK293 cells (EC50)
T1 sequence (G5EG88 20-545): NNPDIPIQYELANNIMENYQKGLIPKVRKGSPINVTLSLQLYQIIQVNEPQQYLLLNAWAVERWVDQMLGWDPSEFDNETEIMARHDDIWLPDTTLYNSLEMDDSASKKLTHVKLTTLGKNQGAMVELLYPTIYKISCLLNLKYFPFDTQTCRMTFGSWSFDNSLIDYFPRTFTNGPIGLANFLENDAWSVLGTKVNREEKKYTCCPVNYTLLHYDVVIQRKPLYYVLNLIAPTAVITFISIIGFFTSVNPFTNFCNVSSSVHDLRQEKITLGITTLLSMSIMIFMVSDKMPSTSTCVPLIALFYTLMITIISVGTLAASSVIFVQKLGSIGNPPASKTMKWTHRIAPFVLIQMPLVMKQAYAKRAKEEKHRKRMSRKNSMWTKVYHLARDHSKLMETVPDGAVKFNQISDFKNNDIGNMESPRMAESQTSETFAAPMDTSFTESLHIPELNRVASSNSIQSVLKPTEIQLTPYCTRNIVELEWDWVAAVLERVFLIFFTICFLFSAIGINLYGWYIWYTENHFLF

[3] = target: T1, ACR-23 (acetylcholine receptor like-23); assay: cryo-EM structure ([…] Å, betaine co-bound); EC50 by whole-cell patch clamp in HEK293 cells; type: cell-based

stoichiometry N [1]: 5
Compound: engineered ACR-23 (acetylcholine receptor like-23), M3-M4 loop replaced with bRIL (from UniProt G5EG88 20-385; G5EG88 438-545)

EC50 [2]: ~34.4 µM
Compound: C[N+](C)(C)CC(=O)O [betaine]

Compound: CC(C#N)(COc1cc(C#N)ccc1C(F)(F)F)NC(=O)c1ccc(SC(F)(F)F)cc1 (racemic) [monepantel]
EC50 [3]: 2.13 µM
